Where “and” joins values, the source holds several entries; their conditions need not be identical. Equal values may be shown once. Entries after “also recorded” stand apart in the source; their conditions may differ.
Legend:
Type in all cases: in vivo, human
[1] = system: facial papulo-pustular inflammatory acne lesions; assay: Split-face radiant IR skin preparation prior to PDT for inflammatory type acne of the face (Example 6); conditions: untreated side (no IR); one month later
Experimental: A person was treated for facial papulo-pustular inflammatory acne lesions. After performing an acetone scrub on the treatment area, a radiant IR skin preparation was done on the right side of their face (970 nm, 80 mW/cm2, for 30 min). Then 5-aminolevulinic acid (Levulan™ Kerastick™) was applied to the skin and left for 90 min incubation time. […] Radiant IR skin preparation allows for a reduction in the number of PDT treatments necessary for significant clinical improvements.

cystic acne lesions = assay: Split face or split back pre-PDT radiant IR study, eleven cystic acne patients (Example 7); conditions: one month after PDT; IR 970 nm 50 mW/cm2 15 min prior to 5-ALA; most patients
Experimental: Study Design/Materials and Methods: Eleven (11) patients were enrolled in a split face or split back (pre-treated side versus control) study with a pre-approved IRB protocol. […] Lesion count was assessed both manually and by digital photography before and 4 weeks after one PDT procedure. Prior to the application of 5-ALA, one side of the face or back was pre-treated with radiant IR [CW LEDs emitting @ λ970 nm, irradiance 50 mW/cm2 for 15 minutes, total fluence 45 J/cm2], while the other half was used as control. PDT was then performed on the entire surface (face or back).

[2] = system: inflammatory acne lesions; assay: Randomized, controlled, rater-blinded split face/back trial of IR pre-treatment plus ALA-PDT in inflammatory acne (Example 9); set-up: key to Clinical Global Severity Assessment at Week-4, Median: 0: Clear; 1: Almost clear; 2: Mild; 3: Moderate; 4: Severe; 5: Very Severe; conditions: for Clinical Global Severity Assessment at Week-4, Median: six-point rating scale, grade 0-5; for Change from Baseline in Lesion Counts, Total Inflammatory lesions, Median (reduction): week-4 (one month after PDT)
Experimental: One side was pre-treated for 15 minutes with radiant IR light emitting diode (LED) (970 nm), while the other side was used as control. ALA was then applied after which PDT LED (630 nm) was performed on the entire face or back surface. Blinded lesion counts and clinical global assessment of severity were performed based on digital photographs before and four weeks after the PDT procedure.
Inclusion criteria included patients with skin type I to III according to the Fitzpatrick Classification System [^xxviii]. Exclusion criteria comprised patients taking cortisone (Prednisone), anticoagulant therapy, or any drug known to increase photosensitivity. In addition, during the 12 months preceding the study, patients were required not to have used isotretinoin (Accutane), or applied topical steroids on the site to be treated. Moreover, oral antibiotics use, laser or topical anti-acne medication at the to-be-treated site were not permitted for eight weeks prior to the study. Patients gave written informed consent to participate in this trial in compliance with the US Code of Federal Regulations dealing with the conduct of clinical studies (21 CFR including parts 50 and 56 concerning informed consent and IRB regulations). The study was conducted according to Good Clinical Practice Guidelines and the principles of the Declaration of Helsinki, and was approved by the Institutional Review Board Services (Div. 1373737 Toronto, Canada).
Patients were assigned to a split face or split back group to allow for within-patient assessments of clinical effects. Assignment was based on the patient's problem area. One side was randomly (using a coin flip) assigned to receive IR pre-treatment and ALA-PDT, and the other ALA-PDT alone to serve as control. The IR pre-treatment consisted of a 15 minute exposure to radiant IR LED at 970 nm ([…] using the LumiPhase-R/IR™, OPUSMED Inc. Montreal, Canada) to reach peak H2O absorption inside-out temperature of 45° C. Papillary dermis temperature was monitored with a needle probe throughout the session and up to 40 minutes (Type-T thermocouple, Omega, Montreal, Canada). ALA (20% Levulan Kerastick, DUSA Pharmaceuticals, USA) was then applied on both sides for 60 minutes, after which PDT with LED at 630 nm (50 mW/cm^2, 70 J/cm^2) was performed on the entire face or back surface for a duration of 23 minutes (LumiPhase-R/B™, OPUSMED Inc. Montreal, Canada). No cooling method was used. Digital photographs (Canon Dual Flash EOS 10D, Canon, Tokyo, Japan with EX SIGMA 50 mm 1:2.8 macro lens, Sigma, Aizu, Japan) were taken prior to and four weeks after the procedure. Each photograph was taken maintaining identical ambient lighting, pose and camera angles.
Acne lesion counts were performed before and four weeks after the PDT treatment. All types of inflammatory (papules, pustules, nodules) and noninflammatory (open and closed comedones) acne lesions were counted. Lesion counts were performed based on the digital photographs by two non-treating physicians who were blinded to the treatment regimen (IR-treated or control side) and to the timing of the photographs (baseline or post-treatment).
The global severity of acne was assessed at the end of the study by the […] non-treating physicians, as described above, using a six-point rating scale (Table 1). Clinical success was defined by grades 0 (clear) or 1 (almost clear).
Adverse reactions were monitored throughout the study. Signs of erythema, oedema, scaling/crusting, bronzing, textural changes, hyperpigmentation, and hypopigmentation were documented during the time period of the clinical trial.
Cronbach's alpha was calculated to assess inter-rater reliability in assessments. Reliability was deemed acceptable if Cronbach alpha was ≧7 allowing raters' assessments to be combined for analysis. The primary outcome variable was the percent change from baseline in inflammatory lesion count measured four weeks post-treatment. […]

NCC(=O)CCC(=O)O [5-aminolevulinic acid]
PDT sessions needed for similar results [1]: needed an additional PDT session | number of cystic lesions, pre-treated versus control side (cystic acne lesions): statistically significant decrease | tolerability of the treatment ([2]; ALA-PDT with LED 630 nm, with or without IR pre-treatment, listed as ALA): overall well tolerated; also recorded: well tolerated with no significant adverse events | treatment-related adverse effects ([2]; ALA-PDT with or without IR pre-treatment): No unusual treatment-related adverse effects were observed | Clinical Global Severity Assessment at Week-4, Median ([2]; Control side (ALA-PDT alone)): 2 | Change from Baseline in Lesion Counts, Total Inflammatory lesions, Median (reduction) ([2]; Control side (ALA-PDT alone), listed as ALA): 38% and 37.86% | Clinical Global Severity Assessment at Week-4, Median ([2]; IR-Treated side): 1 | Change from Baseline in Lesion Counts, Total Inflammatory lesions, Median (reduction) ([2]; IR-Treated side, listed as ALA): 73% and 73.21% | additional benefit of IR-treated side in reduction of inflammatory lesion count ([2]; IR-treated versus control side, week-4): 35% | time to disappearance of slight erythema post-PDT ([2]; most patients): ≤ 48 h

Reference: patent publication US20130274834A1, “Method for the treatment of skin tissues” (priority 2006, published 2013)
